In ChEMBL document CHEMBL1156488, “Selective induction of chemotherapy resistance of mammary tumors in a conditional mouse model for hereditary breast cancer” (2007):
Calls of active or inactive are those of the source. The calls are words filed in the database; no cut-off is given here.

Experiments:
[1] = test system: Mus musculus; test: Antitumor activity in Brca1 and p53 deficient K14cre mouse hereditary breast cancer model at 5 mg/kg, iv; type: functional, organism-based; design: dose 5 mg/kg
[2] = Antitumor activity in Brca1 and p53 deficient mouse mammary tumor cell xenografted mouse hereditary breast cancer model assessed as median survival at 5 mg/kg, iv; type: functional
[3] = test system: Mus musculus; test: Antitumor activity in Brca1 and p53 deficient K14cre mouse hereditary breast cancer model at 25 mg/kg, iv; type: functional, organism-based; design: dose 25 mg/kg
[4] = Antitumor activity in Brca1 and p53 deficient mouse mammary tumor cell xenografted mouse hereditary breast cancer model assessed as median survival at 25 mg/kg, iv; type: functional
[5] = test system: T*23; test: Antitumor activity in doxorubicin-resistant Brca1 and p53 deficient mouse mammary tumor T*23 cell xenografted mouse hereditary breast cancer model at 25 mg/kg, iv; type: functional, organism-based; design: dose 25 mg/kg
[6] = test system: Mus musculus; test: Antitumor activity in doxorubicin-sensitive Brca1 and p53 deficient mouse mammary tumor cell xenografted mouse hereditary breast cancer model at 25 mg/kg, iv; type: functional, organism-based; design: dose 25 mg/kg

SMILES: COc1cccc2c1C(=O)c1c(O)c3c(c(O)c1C2=O)C[C@@](O)(C(=O)CO)C[C@@H]3O[C@H]1C[C@H](N)[C@H](O)[C@H](C)O1 [DOXORUBICIN]
- Activity [1]: Active
- Survival [2]: 63 days

SMILES: CC(=O)O[C@@]12CO[C@@H]1C[C@H](O)[C@@]1(C)C(=O)[C@H](O)C3=C(C)[C@@H](OC(=O)[C@H](O)[C@@H](NC(=O)OC(C)(C)C)c4ccccc4)C[C@@](O)([C@@H](OC(=O)c4ccccc4)[C@H]21)C3(C)C.O.O.O [DOCETAXEL]
- Activity [3]: Active
- Survival [4]: 44 days
- Activity [5]: inactive
- Activity [6]: Active
